Values joined by “and” are separate entries in the source; they are usually repeats but may differ in a detail not shown here. Equal entries are not always repeated.
These compounds were tested against SARS-CoV-2 Main Protease (SARS-CoV-2) (UniProt P0DTD1).

Structure (SMILES)	IC50
O=C(NCCc1cccc(F)c1)C(c1cccnc1)N(Cc1cccnc1)C(=O)c1cnc[nH]1 (centres undefined)	> 99 µM
O=C1N(c2cncc3ccccc23)CCC12CN(S(=O)(=O)CC1(C(F)(F)F)CC1)Cc1ccc(Cl)cc12 (centres undefined)	0.157 µM
O=C(Cc1cc(Cl)cc(N2CCC(O)(c3ccc(Cl)cc3)CC2)c1)Nc1cncc2ccccc12	5.21 µM
CC1CCNC(=O)C1NC(=O)Cc1cccc(Cl)c1 (centres undefined)	43.7 µM
O=C(Cc1cc(Cl)cc(NCc2cccc(Br)c2)c1)Nc1cncc2ccccc12	1.48 µM
COc1ccccc1OC1CCN(C(=O)c2cc(=O)[nH]c3ccccc23)C1 (centres undefined)	> 99.5 µM
O=C(NCCc1cccc(F)c1)C(c1cccnc1)N(C(=O)c1cocn1)c1ccc2scnc2c1 (centres undefined)	84 µM
N#CCc1cccc(NC(=O)c2cnn3cc(Br)cnc23)n1	> 99.5 µM
O=C(Nc1cncc2[nH]c(=O)[nH]c12)C1CCOc2ccc(Cl)cc21 (centres undefined)	62.8 µM
Cc1cn2nnc(C(=O)N(c3ccc(C(C)(C)C)cc3)C(C(=O)NCCc3cccc(F)c3)c3cccnc3)c2c(=O)[nH]1 (centres undefined)	> 99.5 µM
CC(=O)N(CC(=O)Nc1ccc(F)c(Cl)c1)c1cccc(C(F)(F)F)c1	> 99.5 µM
CC1CN(CCO)CCN1C(=O)CC1(C(=O)Nc2cncc3ccccc23)CCOc2ccc(Cl)cc21 (centres undefined)	14.5 µM
CC(C)(C)c1ccc(N(C(=O)c2c[nH]c(=O)s2)C(C(=O)NCCc2cccc(F)c2)c2cccnc2)cc1 (centres undefined)	29.1 µM
O=C(CCl)N1CCN(Cc2cc(Cl)cc(Cl)c2)CC1	1.89 µM
Cc1cc(C)nc(NC2CCN(C(=O)CCl)CC2)n1	27.6 µM
Cc1cc(Nc2cc(Cl)cc(CC(=O)Nc3cncc4ccccc34)c2)c(F)cc1Br	2.05 µM
Cc1nc(Nc2cc(Cl)cc(CC(=O)Nc3cncc4ccccc34)c2)ccc1Br	2.07 µM
O=C(Nc1cncc2ccccc12)[C@@H]1CN(S(=O)(=O)CC2CS(=O)(=O)C2)Cc2ccc(Cl)cc21 (stereo in doubt)	8.23 µM
CSCCCNC(=O)C(c1cccnc1)N(C(=O)c1cocn1)c1ccc(C(C)(C)C)cc1 (centres undefined)	3.85 µM
O=C(Cc1cc(Cl)cc(N(C2CCCCC2)C2CCCCC2)c1)Nc1cncc2ccccc12	2.3 µM
CC(C)(C)N(Cc1ccccc1)c1cc(Cl)cc(CC(=O)Nc2cncc3ccccc23)c1	1.91 µM
O=C(NCCc1cccc(F)c1)C(c1cccnc1)N(C(=O)c1cnc[nH]1)C1CCC2(CCO2)CC1 (centres undefined)	> 99 µM
N#CC(C(=O)Nc1cncc2ccccc12)c1ccc(Cl)c(Cl)c1 (centres undefined)	0.803 µM
CN(C)CCCN(Cc1cccs1)C(=O)Cc1cncc2ccccc12	> 99.5 µM
O=C(CCl)N1CCN(Cc2cc(Cl)ccc2CNC(=O)N2CCOCC2)CC1	3.8 µM

Structure (SMILES)	IC50
O=C(Cc1cc(Cl)cc(Nc2cccc3ccc(O)cc23)c1)Nc1cncc2ccccc12	3.2 µM
O=C(Cc1cccc(Cl)c1)Nc1cncc2nccnc12	76 µM
Nc1ccc2c(c1)C(=O)N(c1cc(Cl)cc(CC(=O)Nc3cncc4ccccc34)c1)C2=O	1.86 µM
Cc1ccncc1NC(=O)Cc1cc(Cl)cc(OCc2ncn[nH]2)c1	37 µM
O=C(Nc1cncc2ccccc12)C1CN(Cc2nnc[nH]2)Cc2ccc(Cl)cc21 (centres undefined)	0.784 µM
Cc1ccn2c(NC(=O)Cc3cccc(Cl)c3)cnc2c1	19.6 µM
CCOC(=O)c1nc(S(C)(=O)=O)ncc1Cl	1.6 µM
Cc1nc(C2CC2)oc1C(=O)N(c1ccc(C(C)(C)C)cc1)C(C(=O)NCCc1cccc(F)c1)c1cccnc1 (centres undefined)	> 99.5 µM
CC(=O)N(CC(=O)Nc1ccc(F)c(Cl)c1)c1cccc(Cl)c1	> 99.5 µM
COc1ccc2c(NC(=O)Cc3cccc(Cl)c3)cncc2c1	8.63 µM
O=C(CN1Cc2ccc(Cl)cc2C(C(=O)Nc2cncc3ccccc23)C1)NC1CC1 (centres undefined)	0.076 µM and 0.099 µM and 0.186 µM
O=C(Cc1cc(Cl)cc(Nc2ccc(N3CCOCC3=O)cc2)c1)Nc1cncc2ccccc12	1.99 µM
N#CCS(=O)(=O)N1Cc2ccc(Cl)cc2C(C(=O)Nc2cncc3ccccc23)C1 (centres undefined)	0.33 µM
O=C(CN1CC(C(=O)Nc2cncc3ccccc23)c2cc(Cl)ccc2C1=O)NC1CCC1 (centres undefined)	0.129 µM
Cn1c(NC(=O)c2cccnc2-n2cccn2)nc2cc(F)ccc21	> 99.5 µM
CCOc1ccc(N(C(=O)c2cocn2)C(C(=O)NCCc2cccc(F)c2)c2cccnc2)cc1 (centres undefined)	15.5 µM
O=C(CCl)N1CCN(C(c2ccccc2)c2ccccc2)CC1	1.98 µM
Cc1ncc(CN2Cc3ccc(Cl)cc3C(C(=O)Nc3cncc4ccc(F)cc34)C2)[nH]1 (centres undefined)	0.307 µM
CN(C)CCOc1ccc2cncc(NC(=O)C3CN(S(=O)(=O)CC4(C)CS(=O)(=O)C4)Cc4ccc(Cl)cc43)c2c1 (centres undefined)	0.125 µM
O=C(Cc1cccc(Cl)c1)Nc1n[nH]c2ccccc12	> 99.5 µM
CC(C)(C)c1ccc(N(C(=O)c2[nH]nc(O)c2CCO)C(C(=O)NCCc2cccc(F)c2)c2cccnc2)cc1 (centres undefined)	> 99.5 µM
O=C(CC1(C(=O)Nc2cncc3ccccc23)CCOc2ccc(Cl)cc21)N1CCOCC1CC(F)F (centres undefined)	7.68 µM and 12.6 µM
O=C(Nc1cncc2c1CCCC2)[C@H]1CNS(=O)(=O)c2ccc(Cl)cc21 (stereo in doubt)	0.723 µM
Cn1ncc2cc(C(=O)NNc3nc4cccnc4s3)cnc21	> 99.5 µM
CC(=O)NC(C(=O)Nc1cncc2ccccc12)c1ccc(Cl)c(Cl)c1 (centres undefined)	4.05 µM

Structure (SMILES)	IC50
O=C1N(Cc2cccc(Cl)c2)CCN1c1nccc2n[nH]cc12	4.56 µM
CN1CCN(c2ncc(C(C(=O)NCCc3cccc(F)c3)N(C(=O)c3cocn3)c3ccc(C(C)(C)C)cc3)cn2)CC1 (centres undefined)	> 99.5 µM
CC(=O)NCc1cc(Cl)cc(CC(=O)Nc2cnccc2C)c1	41.3 µM
O=C1CC(C(=O)N2CCN(c3cccc(Cl)c3)CC2)c2ccccc2N1 (centres undefined)	20.9 µM
Cc1ccncc1NC(=O)Cc1cc(Cl)cc(OCc2nnc(C3CCCCC3)o2)c1	20.6 µM
COc1ccc2c(NC(=O)C3CN(S(=O)(=O)CC4(C#N)CC4)Cc4ccc(Cl)cc43)cncc2c1 (centres undefined)	0.342 µM
Cc1ccccc1C(C)NC(C)C(=O)Nc1ccc2[nH]c(=O)[nH]c2c1 (centres undefined)	> 99.5 µM
O=C(Nc1cncc2ccccc12)C1CN(S(=O)(=O)N2CCOCC2)Cc2ccc(Cl)cc21 (centres undefined)	0.138 µM
N#Cc1cccc(NC(=O)Nc2cncc(N)c2)c1	54.3 µM
Cc1ccncc1NC(=O)Cc1cc(Cl)cc(OCc2n[nH]c3ccccc23)c1	> 99.5 µM
Cc1cc(Nc2cc(Cl)cc(CC(=O)Nc3cncc4ccccc34)c2)c(Cl)cc1F	2.15 µM
O=C(Cc1cc(Cl)cc(Nc2ccc(SC(F)(F)F)cc2)c1)Nc1cncc2ccccc12	1.84 µM
O=C(Nc1cncc2ccccc12)C1CCCc2ccc(Cl)cc21 (centres undefined)	0.324 µM
COc1ccc2c(NC(=O)C3CCOc4ccc(Cl)cc43)[nH]nc2c1 (centres undefined)	> 99.5 µM
O=C(Nc1cncc2ccccc12)C12CCC(O1)c1cc(Cl)ccc12 (centres undefined)	2.39 µM
O=C(Cc1cccc(Cl)c1)Nc1cncc2[nH]ccc12	6.19 µM
O=c1c2ccccc2c(-c2ccc(Br)cc2)nn1CC(O)CN1CCOCC1 (centres undefined)	> 99.5 µM
O=C(NCc1ccccn1)[C@H]1CN(C(=O)CCl)CCN1S(=O)(=O)c1ccsc1 (stereo in doubt)	0.307 µM
COc1ccc2c(NC(=O)Cc3cccc(Cl)c3)noc2c1	> 99.5 µM
O=C1CCN(S(=O)(=O)c2cccc(F)c2)CC1	> 99.5 µM
Cc1cc(C(=O)N2CCC(C3CCNC3)CC2)cc(S(=O)(=O)N(C)C)c1C (centres undefined)	> 99.5 µM
N#CC1(CS(=O)(=O)N2Cc3ccc(Cl)cc3C(C(=O)Nc3nncn3C3CC3)C2)CC1 (centres undefined)	55.3 µM
O=C(Cc1cc(Cl)cc(Oc2cccc(=O)[nH]2)c1)Nc1cncc2ccccc12	1.98 µM
COc1cc(N(C(=O)c2cocn2)C(C(=O)NCCc2cccc(F)c2)c2cccnc2)ccc1S(=O)(=O)N(C)C (centres undefined)	> 99.5 µM
CCNC(=O)CN1CC(C(=O)Nc2cncc3ccccc23)c2cc(Cl)ccc2C1=O (centres undefined)	0.0628 µM and 0.105 µM and 0.143 µM

Structure (SMILES)	IC50
CC1NCCn2c(-c3nc(-c4cnc5cnccn45)no3)ccc21 (centres undefined)	> 99.5 µM
O=C(NCCc1nnc2n1CCC2)c1cc(O)nc2ccccc12	> 99.5 µM
Cc1ccncc1NC(=O)C(C)c1cccc(C#N)c1 (centres undefined)	55.2 µM and 54.7 µM
O=C(Nc1ccc2c(=O)cc[nH]c2c1)c1ccc2ccncc2c1	> 99.5 µM
N#CC1(CS(=O)(=O)N2Cc3ccc(Cl)cc3C3(CCN(c4cncc5ccccc45)C3=O)C2)CCOCC1 (centres undefined)	0.338 µM
Cc1cc(Br)c(Cl)cc1Nc1cc(Cl)cc(CC(=O)Nc2cncc3ccccc23)c1	2.02 µM
CC(C)C[C@@H](NC(=O)[C@@H](Cc1ccccc1)NC(=O)[C@H](N)Cc1ccccc1)C(=O)N[C@H](CCCCN)C(=O)N1CCC(N)(C(=O)O)CC1 (stereo in doubt)	> 99 µM
C=CC(=O)N(c1cc(C(C)(C)C)on1)C(C(=O)NCCc1cccc(F)c1)c1cncc(O)c1 (centres undefined)	> 99.5 µM
CC(C)(CNC(=O)C1CNC(=O)N1)N1CCc2ccccc2C1 (centres undefined)	> 99.5 µM
CCC(=O)Nc1ccc(N(Cc2ccccc2)C(=O)n2nnc3ccccc32)cc1	> 99.5 µM
O=C(Cc1ccc(Cl)c(Cl)c1)Nc1cncc2ccccc12	0.178 µM and 0.384 µM
O=C(Cc1cc(Cl)cc(NCCc2ccc(Cl)cc2Cl)c1)Nc1cncc2ccccc12	3.91 µM
CN(c1ccc2c(NC(=O)C3CN(S(=O)(=O)CC4(C#N)CC4)Cc4ccc(Cl)cc43)cncc2c1)S(C)(=O)=O (centres undefined)	0.232 µM
Cn1ccnc1CN(C(=O)CC1(C(=O)Nc2cncc3ccccc23)CCOc2ccc(Cl)cc21)C1CC1 (centres undefined)	5.05 µM
CC(NC(=O)C1CCC(=O)NC1)(C(=O)Nc1cncc2ccccc12)c1ccc(Cl)c(Cl)c1 (centres undefined)	4.1 µM
O=C(c1cc(=O)[nH]c2ccccc12)N1CCN(c2ccccc2)CC1	27.5 µM
O=C(Cc1cc(Cl)cc(Nc2cccc(Br)c2)c1)Nc1cncc2ccccc12	2.07 µM
O=C(Cc1cc(Cl)cc(Nc2cc(Cl)nc(Cl)n2)c1)Nc1cncc2ccccc12	1.83 µM
CS(=O)(=O)N1CCc2ccc(CN3CCN(C(=O)CCl)CC3)cc2C1	40.2 µM
COc1cc(Nc2cc(Cl)cc(CC(=O)Nc3cncc4ccccc34)c2)c(Cl)cc1Cl	6.8 µM
O=C(Cc1cc(Cl)cc(N2CCN(C(=O)[C@@H]3COc4ccccc4O3)CC2)c1)Nc1cncc2ccccc12 (stereo in doubt)	2.74 µM
O=C(Cc1cc(Cl)cc(NCc2ccccc2Br)c1)Nc1cncc2ccccc12	3.5 µM
N#CC1(CS(=O)(=O)N2Cc3ccc(Cl)cc3[C@H](C(=O)Nc3cncc4ccccc34)C2)CCOCC1 (stereo in doubt)	0.06 µM and 0.0875 µM
O=C(Cc1cc(Cl)cc(NCc2ccc(F)c(Cl)c2)c1)Nc1cncc2ccccc12	2.49 µM
